Square brackets hold non-standard residues; d marks the D form. Peptide text beside a SMILES is read from it. * marks the point of attachment. Dolaproine = CO[C@@H]([C@@H]1CCCN1)[C@@H](C)C(=O)O; Dil = CC[C@H](C)[C@H](NC)[C@@H](CC(=O)O)OC; NMe2Val = CC(C)[C@@H](C(=O)*)N(C)C; NH(3-hydroxypropyl) = OCCCN*
Assay: Plasma PK profile in patients dosed with XMT-1536
Assay type: in vivo, human
Settings: after XMT-1536
Procedure: The PK profile of the active ingredient of XMT-1536, its release product and selected metabolites are determined for each patient by non-compartmental analysis using standard PK software (e.g., Phoenix WinNonlin). PK parameters per patient include time of maximum observed concentration (tmax), maximum concentration (Cmax), and area under the concentration curve for the last measurable concentration (AUC0-last). When the terminal elimination phase is identified, additional parameters such as elimination half-life, clearance, and volume of distribution are determined.
The plasma PK profile for the analytes (total antibody; conjugated drug (AF-HPA); free drug (AF-HPA) and the drug metabolite auristatin F (AF)) was determined in blood samples from 30 patients (3 mg/m^2, n=1; 6 mg/m^2, n=1; 12 mg/m^2, n=7; 20 mg/m^2, n=15; 30 mg/m^2, n=5; 40 mg/m^2, n=1). […] The PK characteristics is consistent with that reported for other approved antibody-drug conjugates or those currently in clinical development.

| SMILES | accumulation after administration of multiple doses | systemic exposure compared to that of the conjugated drug |
| --- | --- | --- |
| CC[C@H](C)[C@@H]([C@@H](CC(=O)N1CCC[C@H]1[C@H](OC)[C@@H](C)C(=O)N[C@@H](Cc1ccccc1)C(=O)NCCCO)OC)N(C)C(=O)[C@@H](NC(=O)[C@H](C(C)C)N(C)C)C(C)C [AF-HPA, Auristatin F-hydroxypropyl amide] (NMe2Val-V[Dil][Dolaproine]F-{NH(3-hydroxypropyl)}) | no accumulation | low systemic expose |
| CC[C@H](C)[C@@H]([C@@H](CC(=O)N1CCC[C@H]1[C@H](OC)[C@@H](C)C(=O)N[C@@H](Cc1ccccc1)C(=O)O)OC)N(C)C(=O)[C@@H](NC(=O)[C@H](C(C)C)N(C)C)C(C)C [AF, auristatin F] (NMe2Val-V[Dil][Dolaproine]F-OH) | no accumulation | low systemic expose |

— US11407825B2, “NaPi2b-targeted polymer antibody-drug conjugates and methods of use thereof” (Mersana Therapeutics, Inc., priority 2018, dated 2022)
